# Columns and labels:
# [1] = molecular target: T1, aldose reductase (Bos taurus, UniProt P16116); assay: in vitro aldose reductase inhibition (enzyme from bovine lens, modified Hayman and Kinoshita procedure); type: biochemical; conditions: for inhibition at 10 µM: 10^-5 molar, read-out: % Inhibition at Different Molar Concentrations (in vitro), 10^-5; for inhibition at 1 µM: 10^-6 molar, read-out: % Inhibition at Different Molar Concentrations (in vitro), 10^-6; for inhibition at 0.1 µM: 10^-7 molar, read-out: % Inhibition at Different Molar Concentrations (in vitro), 10^-7
# T1 construct: preparation of the enzyme from bovine lens; from tissue; host or cells: bovine lens
# Procedure: In the present case the procedure of Hayman and Kinoshita is modified in that the final chromatography step is omitted in the preparation of the enzyme from bovine lens.
# The following results were obtained when the compounds of this invention were evaluated in the above in vitro test.
# [2] = tested on: aldose reductase; conditions: reported in the literature; cited from earlier work
Structure (SMILES),inhibition at 10 µM [1],inhibition at 1 µM [1],inhibition at 0.1 µM [1],inhibition of aldose reductase (in words) [2]
"O=C(O)[C@@H]1CCCN1C(=S)c1cccc2c(Br)cccc12 [R^1 R^2=CH2 CH2 CH2, R^3=5-Br, n=O, N-[(5-bromo-1-naphthalenyl)thioxomethyl]-L-proline]",56%,26%,–,–
"CN(CC(=O)O)C(=S)c1cc(Br)cc2ccccc12 [R^1=CH3, R^2=H, R^3=3-Br, n=O, N-[(3-Bromo-1-naphthalenyl)thioxomethyl]-N-methylglycine]",90%,74%,28%,–
"CN(CCCC(=O)O)C(=S)c1cccc2c(Br)cccc12 [R^1=CH3, R^2=H, R^3=5-Br, n=2, N-[(5-bromo-1-naphthalenyl)thioxomethyl]-N-methyl-4-aminobutanoic acid]",37%,–,–,–
COc1ccc(C(=S)N(C)CC(=O)O)c2cccc(S(=O)(=O)N(C)C)c12 [N-[[4-methoxy-5-(dimethylaminosulfonyl)-1-naphthalenyl]thioxomethyl]-N-methylglycine],80%,35%,6%,–
"O=C(O)CN1C(=O)c2cccc3cccc(c23)C1=O [1,3-Dioxo-1H-benz[de]isoquinoline-2(3H)-acetic acid]",–,–,–,effective inhibitor of aldose reductase
"CC(C(=O)O)N(C)C(=S)c1cccc2c(Br)cccc12 (centres unmarked) [R^1=CH3, R^2=CH3, R^3=5-Br, n=O *]",18%,–,–,–
"O=C(O)CN(CC(=O)O)C(=S)c1cccc2c(Br)cccc12 [R^1=CH2 COOH, R^2=H, R^3=5-Br, n=O, N-[(5-bromo-1-naphthalenyl)thioxomethyl]-N-(carboxymethyl)glycine]",46%,7%,–,–
"CN(CC(=O)O)C(=S)c1cccc2ccc(Br)cc12 [R^1=CH3, R^2=H, R^3=7-Br, n=O, N-[(7-bromo-1-naphthalenyl)thioxomethyl]-N-methylglycine]",86%,58%,15%,–
COc1c(Cl)cc(C(=S)N(C)CC(=O)O)c2cccc(S(=O)(=O)N(C)C)c12 [N-[[3-chloro-4-methoxy-5-(dimethylaminosulfonyl)-1-naphthalenyl]thioxomethyl]-N-methylglycine],91%,67%,19%,–
"O=C1NC(=O)[C@@]2(CCOc3ccc(F)cc32)N1 [sorbinil, (S)-6-Fluoro-2,3-dihydrospiro(4H-1-benzopyran-4,4'-imidazolidine)-2',5'-dione]",–,–,–,aldose reductase inhibiting properties
"CN(CC(=O)O)C(=S)c1cccc2cc(Br)ccc12 [R^1=CH3, R^2=H, R^3=6-Br, n=O, N-[(6-bromo-1-naphthalenyl)thioxomethyl)-N-methylglycine]",91%,75%,18%,–
"O=C(O)CN(C(=S)c1cccc2c(Br)cccc12)c1ccc(Cl)cc1 [R^1=4-Cl--C6 H4, R^2=H, R^3=5-Br, n=O, N-[(5-bromo-1-naphthalenyl)thioxomethyl]-N-(4-chlorophenyl)glycine]",86%,80%,39%,–

# Reference: US4391816A, “N-(Naphthalenylthioxomethyl)aminoacid derivatives” (Ayerst, McKenna & Harrison Inc., priority 1981, dated 1983)
